Measured values published in patent US12435080B2, “sGC stimulators” (Tisento Therapeutics Inc., priority 2016, dated 2025).
Positions count from the first letter of the chain named.

What was measured:
sGC enzyme = target: T1, sGC enzyme (Homo sapiens, UniProt Q02108+Q02153); experiment: cGMP GloSensor cell-based assay, 384-well format; details: HEK293 cells expressing GloSensor 40F cGMP; 10 μM DETA-NONOate; normalized to 30 μM Compound Y; compounds in Table IA; read-out: Glo-sensor AbsEC50
T1 construct: incorporated into these cells detect cGMP formed by the compounds stimulating the sGC enzyme; host or cells: HEK293 cells stably expressing GloSensor 40F cGMP biosensor
T1 sequence (Q02153 1-619): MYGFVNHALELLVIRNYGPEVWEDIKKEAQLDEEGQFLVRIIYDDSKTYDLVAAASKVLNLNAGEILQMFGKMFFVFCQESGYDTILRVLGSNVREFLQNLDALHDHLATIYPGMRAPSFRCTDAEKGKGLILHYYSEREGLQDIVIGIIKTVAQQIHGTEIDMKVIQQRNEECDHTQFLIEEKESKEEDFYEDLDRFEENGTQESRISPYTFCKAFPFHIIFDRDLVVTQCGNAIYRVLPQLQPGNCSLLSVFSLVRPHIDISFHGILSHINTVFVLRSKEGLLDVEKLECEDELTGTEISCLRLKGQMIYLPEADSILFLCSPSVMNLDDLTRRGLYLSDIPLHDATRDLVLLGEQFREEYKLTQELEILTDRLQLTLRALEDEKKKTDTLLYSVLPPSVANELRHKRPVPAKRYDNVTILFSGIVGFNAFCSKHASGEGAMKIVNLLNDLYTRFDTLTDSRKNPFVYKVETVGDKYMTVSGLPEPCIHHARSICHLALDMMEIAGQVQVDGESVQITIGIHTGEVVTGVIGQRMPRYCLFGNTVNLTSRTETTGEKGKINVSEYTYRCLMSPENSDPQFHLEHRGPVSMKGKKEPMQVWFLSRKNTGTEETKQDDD
T1 sequence (Q02108 1-690): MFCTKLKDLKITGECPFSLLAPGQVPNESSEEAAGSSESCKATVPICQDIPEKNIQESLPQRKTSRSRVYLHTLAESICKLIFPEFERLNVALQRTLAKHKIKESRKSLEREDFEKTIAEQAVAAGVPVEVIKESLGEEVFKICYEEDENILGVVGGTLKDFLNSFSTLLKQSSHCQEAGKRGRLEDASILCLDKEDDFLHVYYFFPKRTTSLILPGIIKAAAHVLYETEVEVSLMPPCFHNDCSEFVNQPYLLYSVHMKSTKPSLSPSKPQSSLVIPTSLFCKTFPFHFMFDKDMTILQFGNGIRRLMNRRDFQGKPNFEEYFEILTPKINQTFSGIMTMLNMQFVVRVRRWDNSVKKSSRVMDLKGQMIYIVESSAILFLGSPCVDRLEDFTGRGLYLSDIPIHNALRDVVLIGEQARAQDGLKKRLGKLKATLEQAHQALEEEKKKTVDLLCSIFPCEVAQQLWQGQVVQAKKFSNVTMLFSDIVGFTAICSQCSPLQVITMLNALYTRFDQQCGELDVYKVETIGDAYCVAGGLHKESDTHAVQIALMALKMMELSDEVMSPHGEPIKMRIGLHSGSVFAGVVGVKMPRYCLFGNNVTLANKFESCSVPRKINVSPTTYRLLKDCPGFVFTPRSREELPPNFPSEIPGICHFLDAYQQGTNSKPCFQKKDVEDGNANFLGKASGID
Procedure, shortened: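 HEK293 cells expressing GloSensor 40F cGMP luciferase biosensor, preloaded with 2 mM GloSensor substrate for 90 min at 25 °C. Endpoint luminescence read after 55 min compound incubation at room temperature.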

sGC = target: T2, sGC (Rattus norvegicus, UniProt P20595); experiment: cGMP neuronal cell-based assay; details: rat primary hippocampal neurons; 30 μM DETA-NO; cGMP by LC-MS/MS; normalized to 10 μM Compound Y; compounds in Table IA; read-out: sGC-neuron Abs EC50
T2 construct: Rat primary neurons were isolated from fetuses of 18-day pregnant Sprague-Dawley females; endogenous in cells; host or cells: Primary rat hippocampal neurons (E18 Sprague-Dawley fetuses)
T2 sequence (P20595 1-619): T1 sequence (Q02153 1-619) with N171S, E205D, N247K, T299A, K615N, D618E, D619N
Method: Rat primary neurons were isolated from fetuses of 18-day pregnant Sprague-Dawley females. The fetuses were collected in Hanks' balanced salt solution (HBSS) and brains were rapidly removed. The cerebral hippocampi were isolated and mechanically fragmented. Further tissue digestion was performed with 0.25% (wt/vol) trypsin solution in HBSS without Ca2+ and Mg2+ for 15 min at 37° C. After trypsination, cells were washed and resuspended in neurobasal medium supplemented with 0.5 mM L-glutamine, 12.5 uM glutamic acid, 2% B-27 and 100U/mL penicillin, and 100 μg/mL streptomycin. Cells were plated at a density of 4×10^4 cells/well in a poly-D-lysine coated 384-well flat clear-bottom plate (Corning Cat No 354662). Cells were incubated 6-7 days at 37° C. in a humidified chamber with 5% CO2. Media was removed and cells were washed 1× with HBSS containing Ca2+ and Mg2+, and replaced with 40 uL HBSS containing 0.5 mM IBMX, and incubated for 15 minutes at 37° C. 10 uL of a 5× stock of test compounds with diethylenetriamine NONOate (DETA-NO) was added. Final concentration of DETA-NO was 30 μM. Cells were incubated for 20 min at 37° C. Medium was removed, 50 uL of ice-cold 10% acetic acid was added, and incubated for 60 minutes at 4° C. Following centrifugation at 4° C. for 5 minutes at 1000×g to pellet cell debris, the supernatant was aspirated to a clean plate and the samples were analyzed for cGMP content. cGMP concentrations were determined from each sample using LC-MS/MS.
Data were normalized to a high control using the following equation: 100*(Sample−Low Control)/(High Control−Low Control), where the low control is the average of 15 samples treated with 1% DMSO, and the high control is the average of 15 samples treated with 10 μM of the known sGC stimulator Compound Y (depicted in Example 2). Data were fit using a 4-parameter fit (log(agonist) vs. response—variable slope) using GraphPad Prism Software v.5. n=2 for all compounds. The Absolute EC50 was interpolated from the curve fit and is defined as the concentration at which a given compound elicits 50% of the high control response after data normalization. Compounds failing to elicit a minimum response of 50% are reported as >30 μM. For compounds run in duplicate or n higher than 2, the result herein given is the geometric mean of the several results obtained.

EC50 (sGC enzyme): < 100 nM
EC50 (sGC): ≤ 100 nM
Compound: Fc1ccc(F)c(Cc2nn(-c3nc(C(F)F)n[nH]3)c3cccnc23)c1 [Compound I-131, 3-(2,5-Difluorobenzyl)-1-(3-(difluoromethyl)-1H-1,2,4-triazol-5-yl)-1H-pyrazolo[4,3-b]pyridine]
